Measurements reported in patent publication US20230356105A1, “TETRAAZADODECANE BASED CHELATING AGENTS FOR SEPARATION OF RARE EARTH ELEMENTS AND METHOD THEREFOR” (Ustav Organicke Chemie a Biochemie AV CR V.V.I., priority 2020, published 2023).
Blank lines part the entries; values can stand above or below the compound they belong to.

Assay: Use of additives to improve separation of Nd/Dy mixture by precipitation with L5 (Example 18)
Format: physicochemical
Settings: 11 mM L5
Procedure: Stock solutions were pipetted into plastic 1×1 cm cuvettes to prepare reaction mixtures with concentrations as follows: • 1. […] 5 mM NdCl3 • 3. 5 mM DyCl3 • 4. 500 mM MOPS pH=7 • 5. the additive of interest, in a variable concentration; if possible, stock solutions were prepared from Na^+ salt forms of the compound; if not, the stock solutions were titrated by NaOH/HCl to pH=7 prior to addition (see Table 12 for additives and concentrations)
These aqueous reaction mixtures, each prepared to a total volume of 2.0 mL with the addition of water as necessary, were mixed by the use of a PTFE-coated stir bar on a magnetic stirrer. The cuvettes were sealed with transparent tape to prevent evaporation overnight. The reaction mixtures were stirred for 18 hours, at which point 500 μL aliquots of each reaction mixture were transferred into plastic 2 mL Eppendorf tubes and centrifuged. The supernatants were carefully pipetted out and transferred to a new set of tubes. The precipitate was dissolved by addition of 500 μL 1M HCl. The absolute concentration of Nd and Dy in each supernatant and precipitate was determined by ICP-OES.

Precipitate concentration [mM] Dy (additive 1 mM): 4.03 mM | Precipitate concentration [mM] Nd (additive 1 mM): 4.30 mM | Supernatant concentration [mM] Dy (additive 1 mM): 0.38 mM | Supernatant concentration [mM] Nd (additive 1 mM): 0.14 mM | Precipitate concentration [mM] Dy (additive 5 mM): 3.62 mM | Precipitate concentration [mM] Nd (additive 5 mM): 4.77 mM | Supernatant concentration [mM] Dy (additive 5 mM): 1.24 mM | Supernatant concentration [mM] Nd (additive 5 mM): 0.19 mM | Precipitate concentration [mM] Dy (additive 10 mM): 2.38 mM | Precipitate concentration [mM] Nd (additive 10 mM): 4.49 mM | Supernatant concentration [mM] Dy (additive 10 mM): 2.27 mM | Supernatant concentration [mM] Nd (additive 10 mM): 0.25 mM | Precipitate concentration [mM] Dy (additive 20 mM): 1.21 mM | Precipitate concentration [mM] Nd (additive 20 mM): 4.08 mM | Supernatant concentration [mM] Dy (additive 20 mM): 3.52 mM | Supernatant concentration [mM] Nd (additive 20 mM): 0.66 mM
Structure (SMILES): O=C(O)CC(O)(CC(=O)O)C(=O)O [citrate]

Precipitate concentration [mM] Dy (additive 20 mM): 4.36 mM | Precipitate concentration [mM] Nd (additive 20 mM): 4.88 mM | Supernatant concentration [mM] Dy (additive 20 mM): 0.42 mM | Supernatant concentration [mM] Nd (additive 20 mM): 0.07 mM
Structure (SMILES): O=C(O)c1ccccc1O [salicylic acid]

Precipitate concentration [mM] Dy (additive 20 mM): 1.13 mM | Precipitate concentration [mM] Nd (additive 20 mM): 4.52 mM | Supernatant concentration [mM] Dy (additive 20 mM): 3.77 mM | Supernatant concentration [mM] Nd (additive 20 mM): 0.47 mM
Structure (SMILES): O=C(O)[C@@H](O)c1ccccc1 [s-mandelic acid]

Continued, compound first:

Structure (SMILES): O=[N+]([O-])O [nitrate]
Precipitate concentration [mM] Dy (additive 100 mM): 4.27 mM | Precipitate concentration [mM] Nd (additive 100 mM): 4.39 mM | Supernatant concentration [mM] Dy (additive 100 mM): 0.36 mM | Supernatant concentration [mM] Nd (additive 100 mM): 0.14 mM | Precipitate concentration [mM] Dy (additive 200 mM): 3.89 mM | Precipitate concentration [mM] Nd (additive 200 mM): 3.97 mM | Supernatant concentration [mM] Dy (additive 200 mM): 0.41 mM | Supernatant concentration [mM] Nd (additive 200 mM): 0.15 mM | Precipitate concentration [mM] Dy (additive 500 mM): 4.16 mM | Precipitate concentration [mM] Nd (additive 500 mM): 4.46 mM | Supernatant concentration [mM] Dy (additive 500 mM): 0.82 mM | Supernatant concentration [mM] Nd (additive 500 mM): 0.14 mM | Precipitate concentration [mM] Dy (additive 1000 mM): 3.23 mM | Precipitate concentration [mM] Nd (additive 1000 mM): 4.61 mM | Supernatant concentration [mM] Dy (additive 1000 mM): 1.72 mM | Supernatant concentration [mM] Nd (additive 1000 mM): 0.15 mM

Structure (SMILES): O=S(=O)(O)O [sulfate]
Precipitate concentration [mM] Dy (additive 100 mM): 4.52 mM | Precipitate concentration [mM] Nd (additive 100 mM): 4.90 mM | Supernatant concentration [mM] Dy (additive 100 mM): 0.34 mM | Supernatant concentration [mM] Nd (additive 100 mM): 0.07 mM | Precipitate concentration [mM] Dy (additive 250 mM): 4.09 mM | Precipitate concentration [mM] Nd (additive 250 mM): 4.96 mM | Supernatant concentration [mM] Dy (additive 250 mM): 0.47 mM | Supernatant concentration [mM] Nd (additive 250 mM): 0.08 mM | Precipitate concentration [mM] Dy (additive 500 mM): 3.57 mM | Precipitate concentration [mM] Nd (additive 500 mM): 4.30 mM | Supernatant concentration [mM] Dy (additive 500 mM): 1.00 mM | Supernatant concentration [mM] Nd (additive 500 mM): 0.59 mM | Precipitate concentration [mM] Dy (additive 1000 mM): 3.35 mM | Precipitate concentration [mM] Nd (additive 1000 mM): 4.61 mM | Supernatant concentration [mM] Dy (additive 1000 mM): 1.20 mM | Supernatant concentration [mM] Nd (additive 1000 mM): 0.34 mM

Structure (SMILES): F [fluoride]
Precipitate concentration [mM] Dy (additive 5 mM): 4.87 mM | Precipitate concentration [mM] Nd (additive 5 mM): 6.21 mM | Supernatant concentration [mM] Dy (additive 5 mM): 1.21 mM | Supernatant concentration [mM] Nd (additive 5 mM): 0.13 mM | Precipitate concentration [mM] Dy (additive 10 mM): 3.82 mM | Precipitate concentration [mM] Nd (additive 10 mM): 6.15 mM | Supernatant concentration [mM] Dy (additive 10 mM): 2.34 mM | Supernatant concentration [mM] Nd (additive 10 mM): 0.18 mM | Precipitate concentration [mM] Dy (additive 15 mM): 2.72 mM | Precipitate concentration [mM] Nd (additive 15 mM): 5.68 mM | Supernatant concentration [mM] Dy (additive 15 mM): 3.26 mM | Supernatant concentration [mM] Nd (additive 15 mM): 0.49 mM

Structure (SMILES): OB(O)c1ccccc1 [phenylboronic acid]
Precipitate concentration [mM] Dy (additive 20 mM): 4.33 mM | Precipitate concentration [mM] Nd (additive 20 mM): 5.02 mM | Supernatant concentration [mM] Dy (additive 20 mM): 0.31 mM | Supernatant concentration [mM] Nd (additive 20 mM): 0.08 mM | Precipitate concentration [mM] Dy (additive 250 mM): 3.36 mM | Precipitate concentration [mM] Nd (additive 250 mM): 4.12 mM | Supernatant concentration [mM] Dy (additive 250 mM): 1.22 mM | Supernatant concentration [mM] Nd (additive 250 mM): 0.87 mM

Structure (SMILES): c1ccncc1 [pyridine]
Precipitate concentration [mM] Dy (additive 20 mM): 4.33 mM | Precipitate concentration [mM] Nd (additive 20 mM): 4.90 mM | Supernatant concentration [mM] Dy (additive 20 mM): 0.28 mM | Supernatant concentration [mM] Nd (additive 20 mM): 0.06 mM | Precipitate concentration [mM] Dy (additive 250 mM): 4.02 mM | Precipitate concentration [mM] Nd (additive 250 mM): 4.67 mM | Supernatant concentration [mM] Dy (additive 250 mM): 0.41 mM | Supernatant concentration [mM] Nd (additive 250 mM): 0.09 mM
